# Source: ChEMBL document CHEMBL1201862, “PubChem BioAssay data set” (2004)
#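 Values below derive from 48-hour exposures of cells grown in 96-well plates, with endpoints linearly interpolated between the two concentrations bracketing the appropriate inhibition level. GI50 is the concentration that inhibits growth by half.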 Calls of active or inactive are those of the source. Rule as the data show it: active = GI50 up to about 1.1 µM and inactive = higher.
# Columns and labels:
# Assay in all cases: NCI-60 cell line screen, 48 h
# [1] = system: A498
# [2] = system: A549
# [3] = system: CAKI-1
# [4] = system: CCRF-CEM
# [5] = system: COLO 205
# [6] = system: DLD-1
# [7] = system: DMS-114
# [8] = system: DMS-273
# [9] = system: EKVX
# [10] = system: HCC 2998
# [11] = system: HCT-116
# [12] = system: HCT-15
# [13] = system: HL-60
# [14] = system: HOP-62
# [15] = system: HOP-92
# [16] = system: HT-29
# [17] = system: IGROV-1
# [18] = system: K562
# [19] = system: KM-20L2
# [20] = system: KM12
# [21] = system: LOX IMVI
# [22] = system: M19-MEL
# [23] = system: MCF7
# [24] = system: MOLT-4
# [25] = system: Malme-3M
# [26] = system: NCI-H226
# [27] = system: NCI-H23
# [28] = system: NCI-H460
# [29] = system: NCI-H522
# [30] = system: NCI/ADR-RES
# [31] = system: OVCAR-3
# [32] = system: OVCAR-4
# [33] = system: OVCAR-5
# [34] = system: OVCAR-8
# [35] = system: RXF 393
# [36] = system: SF-268
# [37] = system: SF-295
# [38] = system: SF-539
# [39] = system: SK-MEL-28
# [40] = system: SK-MEL-2
# [41] = system: SK-MEL-5
# [42] = system: SK-OV-3
# [43] = system: SN12C
# [44] = system: SNB-19
# [45] = system: SNB-75
# [46] = system: SNB-78
# [47] = system: SW-620
# [48] = system: U-251
# [49] = system: UACC-257
# [50] = system: UACC-62
# [51] = system: XF498
# [52] = system: ACHN
# [53] = system: LXFL 529
# [54] = system: M14
# [55] = system: RPMI-8226
# [56] = system: SR
# [57] = system: TK-10
# [58] = system: UO-31
structure (smiles),measurement,setting,value
CCOCC(=O)N(C)c1cccc2c3c(n(C)c12)CCCCC3,GI50,[1],> 100 µM (inactive)
same,GI50,[2],> 100 µM (inactive)
same,GI50,[3],0.798 µM (active)
same,GI50,[4],> 58.9 µM (inactive)
same,GI50,[5],> 100 µM (inactive)
same,GI50,[6],> 100 µM (inactive)
same,GI50,[7],> 100 µM (inactive)
same,GI50,[8],> 31.6 µM (inactive)
same,GI50,[9],> 100 µM (inactive)
same,GI50,[10],> 100 µM (inactive)
same,GI50,[11],> 100 µM (inactive)
same,GI50,[12],> 100 µM
same,GI50,[13],> 100 µM (inactive)
same,GI50,[14],> 100 µM (inactive)
same,GI50,[15],> 94.8 µM (inactive)
same,GI50,[16],> 100 µM (inactive)
same,GI50,[17],> 100 µM (inactive)
same,GI50,[18],> 62.4 µM (inactive)
same,GI50,[19],> 100 µM (inactive)
same,GI50,[20],> 100 µM (inactive)
same,GI50,[21],> 100 µM (inactive)
same,GI50,[22],> 100 µM (inactive)
same,GI50,[23],> 100 µM (inactive)
same,GI50,[24],> 61.5 µM (inactive)
same,GI50,[25],> 100 µM (inactive)
same,GI50,[26],> 100 µM (inactive)
same,GI50,[27],> 100 µM (inactive)
same,GI50,[28],> 100 µM (inactive)
same,GI50,[29],> 100 µM (inactive)
same,GI50,[30],> 100 µM (inactive)
same,GI50,[31],> 100 µM (inactive)
same,GI50,[32],> 100 µM (inactive)
same,GI50,[33],> 100 µM (inactive)
same,GI50,[34],> 100 µM (inactive)
same,GI50,[35],> 89.7 µM (inactive)
same,GI50,[36],> 100 µM (inactive)
same,GI50,[37],> 100 µM (inactive)
same,GI50,[38],> 100 µM (inactive)
same,GI50,[39],> 100 µM (inactive)
same,GI50,[40],> 100 µM (inactive)
same,GI50,[41],> 100 µM (inactive)
same,GI50,[42],> 100 µM (inactive)
same,GI50,[43],> 100 µM (inactive)
same,GI50,[44],> 23.8 µM (inactive)
same,GI50,[45],> 46.1 µM (inactive)
same,GI50,[46],> 100 µM (inactive)
same,GI50,[47],> 100 µM (inactive)
same,GI50,[48],> 100 µM (inactive)
same,GI50,[49],1 µM (active)
same,GI50,[50],> 100 µM (inactive)
same,GI50,[51],> 93.8 µM (inactive)
N#CCCN(CCC#N)c1ccc(/C=C2\N=C(c3cc([N+](=O)[O-])ccc3Cl)N(NC(=O)CC(=O)Nc3ccccc3Cl)C2=O)cc1,GI50,[2],> 100 µM (inactive)
same,GI50,[52],> 100 µM (inactive)
same,GI50,[3],> 100 µM (inactive)
same,GI50,[4],> 100 µM (inactive)
same,GI50,[5],> 100 µM (inactive)
same,GI50,[6],> 100 µM (inactive)
same,GI50,[7],> 100 µM (inactive)
same,GI50,[8],> 100 µM (inactive)
same,GI50,[9],> 100 µM (inactive)
same,GI50,[10],> 100 µM (inactive)
same,GI50,[11],> 100 µM (inactive)
same,GI50,[12],> 100 µM
same,GI50,[14],> 100 µM (inactive)
same,GI50,[15],> 100 µM (inactive)
same,GI50,[17],> 100 µM (inactive)
same,GI50,[18],> 100 µM (inactive)
same,GI50,[19],16.3 µM (inactive)
same,GI50,[20],> 100 µM (inactive)
same,GI50,[21],> 100 µM (inactive)
same,GI50,[53],> 100 µM (inactive)
same,GI50,[54],> 100 µM (inactive)
same,GI50,[22],> 100 µM (inactive)
same,GI50,[24],> 100 µM (inactive)
same,GI50,[25],> 100 µM (inactive)
same,GI50,[26],16.1 µM (inactive)
same,GI50,[27],> 100 µM (inactive)
same,GI50,[29],> 100 µM (inactive)
same,GI50,[31],> 100 µM (inactive)
same,GI50,[32],> 100 µM (inactive)
same,GI50,[33],26.5 µM (inactive)
same,GI50,[34],> 100 µM (inactive)
same,GI50,[55],> 100 µM (inactive)
same,GI50,[35],> 100 µM (inactive)
same,GI50,[36],> 100 µM (inactive)
same,GI50,[37],> 100 µM (inactive)
same,GI50,[38],> 100 µM (inactive)
same,GI50,[39],> 100 µM (inactive)
same,GI50,[40],> 100 µM (inactive)
same,GI50,[41],> 100 µM (inactive)
same,GI50,[42],> 100 µM (inactive)
same,GI50,[43],> 100 µM (inactive)
same,GI50,[44],> 100 µM (inactive)
same,GI50,[46],> 100 µM (inactive)
same,GI50,[56],> 100 µM (inactive)
same,GI50,[47],> 100 µM (inactive)
same,GI50,[57],> 100 µM (inactive)
same,GI50,[48],> 100 µM (inactive)
same,GI50,[50],> 100 µM (inactive)
same,GI50,[58],> 100 µM (inactive)
same,GI50,[51],> 100 µM (inactive)
